Here are results for twelve compounds from patent US7141570B2, “N-aryl-2-oxazolidinone-5-carboxamides and their derivatives” (Pharmacia & Upjohn Company, priority 2002, dated 2006).

Common to all, as to assay: MIC, agar dilution
Format in all cases: cell-based
In general terms: In agar dilution the substance is mixed into plates at graded concentrations.

The subject of one test is E. Faecalis (EFAE 9217). As to conditions: Enterococcus faecalis, E. Faecalis 9217, overnight at 35° C. Here is the method: (§1) The in vitro MICs of test compounds were determined by a standard agar dilution method. A stock drug solution of each analog was prepared in the preferred solvent, usually DMSO:H2O (1:3). Serial 2-fold dilutions of each sample are made using 1.0 ml aliquots of sterile distilled water. To each 1.0 ml aliquot of drug was added 9 ml of molten Mueller Hinton agar medium. The drug-supplemented agar was mixed, poured into 15×100 mm petri dishes, and allowed to solidify and dry prior to inoculation.
(§2) Vials of each of the test organisms are maintained frozen in the vapor phase of a liquid nitrogen freezer. Test cultures are grown overnight at 35° C. on the medium appropriate for the organism. Colonies are harvested with a sterile swab, and cell suspensions are prepared in Trypticase Soy broth (TSB) to equal the turbidity of a 0.5 McFarland standard. A 1:20 dilution of each suspension was made in TSB. The plates containing the drug supplemented agar are inoculated with a 0.001 ml drop of the cell suspension using a Steers replicator, yielding approximately 10^4 to 10^5 cells per spot. The plates are incubated overnight at 35° C.
(§3) Following incubation the Minimum Inhibitory Concentration (MIC μg/ml), the lowest concentration of drug that inhibits visible growth of the organism, was read and recorded.

Another test has as its system E. Faecium (EFAE 12712). To be noted: Enterococcus faecium, E. Faecium 12712, overnight at 35° C. Here is the method:
as §1, §2, §3

The test system of test [1] is H. influenzae (HINF 30063). To be noted: Haemophilus influenzae, H. influenzae 30063, overnight at 35° C. Here is the method:
as §1, §2, §3

The subject of test [2] is H. influenzae (HINF 31810). To be noted: Haemophilus influenzae, H. influenzae 31810, overnight at 35° C. Here is the method: as §1, §2, §3
Test [3] concerns M. catarrhalis (MCAT 30607). To be noted: Moraxella catarrhalis, M. catarrhalis 30607, overnight at 35° C. Here is the method: as §1, §2, §3
For another test, the system named is S. aureus (SAUR 31583). To be noted: Staphylococcus aureus, S. aureus 31583, overnight at 35° C. Here is the method: as §1, §2, §3
For the next test, the system named is S. aureus (SAUR 9213). As to conditions: Staphylococcus aureus, S. aureus 9213, overnight at 35° C. Here is the method: as §1, §2, §3
For test [4], the system named is S. epidermidis (SEPI 30593). As to conditions: Staphylococcus epidermidis, S. epidermidis 30593, overnight at 35° C. The method, then: as §1, §2, §3
The next test deals with S. pneumonia (SPNE 9912). As to conditions: S. pneumonia 9912, overnight at 35° C. Here is the method:
as §1, §2, §3

The next test relates to S. pyogenes (SPYO 152). As to conditions: Streptococcus pyogenes, S. pyogenes 152, overnight at 35° C. The method, then:
as §1, §2, §3

Values after ≈ are worked out from the molar mass of the structure shown.

For the compound `CCC(=S)NC[C@H]1CN(c2ccc(N3CCN(C(=O)COc4ccc(CN(CC)CC)cc4)CC3)c(F)c2)C(=O)O1` [Compound 9], the MIC turned out to be 2 µg/mL (≈ 3.41 µM) against E. Faecalis (EFAE 9217); 2 µg/mL (≈ 3.41 µM) against E. Faecium (EFAE 12712); 32 µg/mL (≈ 54.6 µM) in test [1]; 32 µg/mL (≈ 54.6 µM) in test [2]; 4 µg/mL (≈ 6.83 µM) in test [3]; 32 µg/mL (≈ 54.6 µM) with S. aureus (SAUR 31583). Further, the MIC in the test on S. aureus (SAUR 9213) was 4 µg/mL (≈ 6.83 µM); in test [4] it was 2 µg/mL (≈ 3.41 µM); in the test with S. pneumonia (SPNE 9912), 0.25 µg/mL (≈ 0.427 µM); with S. pyogenes (SPYO 152) it was 0.25 µg/mL (≈ 0.427 µM).
`CCC(=S)NC[C@H]1CN(c2ccc(N3CCN(C(=O)COc4ccc(CN(C)C)cc4)CC3)c(F)c2)C(=O)O1` [Compound 13]: the MIC with E. Faecalis (EFAE 9217) came out at 1 µg/mL (≈ 1.79 µM); with E. Faecium (EFAE 12712), 2 µg/mL (≈ 3.59 µM); in test [1], 16 µg/mL (≈ 28.7 µM); in test [2], 16 µg/mL (≈ 28.7 µM); in test [3], 4 µg/mL (≈ 7.17 µM); against S. aureus (SAUR 31583) it was 16 µg/mL (≈ 28.7 µM). For the same compound, the MIC is 8 µg/mL (≈ 14.3 µM) in the test with S. aureus (SAUR 9213), 1 µg/mL (≈ 1.79 µM) in test [4], 0.125 µg/mL (≈ 0.224 µM) in the test on S. pneumonia (SPNE 9912) and 0.25 µg/mL (≈ 0.448 µM) against S. pyogenes (SPYO 152).
On to `CC(=O)NC[C@H]1CN(c2ccc(N3CCN(C(=O)COc4ccc(CN5CCN(C)CC5)cc4)CC3)c(F)c2)C(=O)O1` [Compound 24], for which the MIC with E. Faecium (EFAE 12712) came out at 2 µg/mL (≈ 3.43 µM); in [1], 32 µg/mL (≈ 54.9 µM); in test [2], 16 µg/mL (≈ 27.5 µM); in test [3], 2 µg/mL (≈ 3.43 µM); against S. aureus (SAUR 31583) it was 16 µg/mL (≈ 27.5 µM); against S. aureus (SAUR 9213), 4 µg/mL (≈ 6.86 µM). Moreover, the MIC in test [4] stood at 2 µg/mL (≈ 3.43 µM); in the test with S. pneumonia (SPNE 9912), 0.125 µg/mL (≈ 0.215 µM); in the test on S. pyogenes (SPYO 152), 0.25 µg/mL (≈ 0.429 µM).
As for `CCN(CC)Cc1ccc(OCC(=O)N2CCN(c3ccc(N4C[C@H](CNC(C)=O)OC4=O)cc3F)CC2)cc1` [Compound 8], the MIC against E. Faecalis (EFAE 9217) was 32 µg/mL (≈ 57.6 µM); against E. Faecium (EFAE 12712), 32 µg/mL (≈ 57.6 µM); in test [1], above 64 µg/mL; in test [2] it was above 64 µg/mL; in [3], 32 µg/mL (≈ 57.6 µM); with S. aureus (SAUR 31583), above 64 µg/mL. Moreover, the MIC with S. aureus (SAUR 9213) amounted to 32 µg/mL (≈ 57.6 µM); in test [4], 8 µg/mL (≈ 14.4 µM); with S. pneumonia (SPNE 9912), 2 µg/mL (≈ 3.6 µM); against S. pyogenes (SPYO 152) it was 2 µg/mL (≈ 3.6 µM).
As for `CC(=O)NC[C@H]1CN(c2ccc(N3CCN(C(=O)COc4ccc(CN(C)C)cc4)CC3)c(F)c2)C(=O)O1` [Compound 14], the MIC in the test on E. Faecalis (EFAE 9217) is 8 µg/mL (≈ 15.2 µM); in the test on E. Faecium (EFAE 12712), 8 µg/mL (≈ 15.2 µM); in [1], 64 µg/mL (≈ 121 µM); in test [2] it was 32 µg/mL (≈ 60.7 µM); in test [3] it was 32 µg/mL (≈ 60.7 µM); with S. aureus (SAUR 31583), above 64 µg/mL. The MIC in the test with S. aureus (SAUR 9213) turned out to be 16 µg/mL (≈ 30.3 µM); in test [4] it was 8 µg/mL (≈ 15.2 µM); against S. pneumonia (SPNE 9912), 0.5 µg/mL (≈ 0.948 µM); in the test on S. pyogenes (SPYO 152) it was 0.5 µg/mL (≈ 0.948 µM).
In the case of `CN(C)Cc1ccc(OCC(=O)N2CCN(c3ccc(N4C[C@H](CNC(=S)C5CC5)OC4=O)cc3F)CC2)cc1` [Compound 2], the MIC with E. Faecalis (EFAE 9217) worked out at 1 µg/mL (≈ 1.76 µM); against E. Faecium (EFAE 12712), 1 µg/mL (≈ 1.76 µM); in test [1], 16 µg/mL (≈ 28.1 µM); in test [2], 8 µg/mL (≈ 14 µM); in [3], 2 µg/mL (≈ 3.51 µM); with S. aureus (SAUR 31583) it was 4 µg/mL (≈ 7.02 µM). Further, the MIC with S. aureus (SAUR 9213) is 2 µg/mL (≈ 3.51 µM); in test [4] it was 1 µg/mL (≈ 1.76 µM); against S. pneumonia (SPNE 9912), 0.125 µg/mL (≈ 0.219 µM); with S. pyogenes (SPYO 152), 0.125 µg/mL (≈ 0.219 µM).
As to `CCN(CC)Cc1ccc(OCC(=O)N2CCN(c3ccc(N4C[C@H](CNC(=S)C5CC5)OC4=O)cc3F)CC2)cc1` [Compound 10], the MIC is 2 µg/mL (≈ 3.35 µM) against E. Faecalis (EFAE 9217); 2 µg/mL (≈ 3.35 µM) in the test on E. Faecium (EFAE 12712); 32 µg/mL (≈ 53.5 µM) in [1]; 32 µg/mL (≈ 53.5 µM) in [2]; 2 µg/mL (≈ 3.35 µM) in test [3]; 8 µg/mL (≈ 13.4 µM) in the test with S. aureus (SAUR 31583). In addition, the MIC turned out to be 2 µg/mL (≈ 3.35 µM) against S. aureus (SAUR 9213), 1 µg/mL (≈ 1.67 µM) in test [4], 0.25 µg/mL (≈ 0.418 µM) against S. pneumonia (SPNE 9912) and 0.25 µg/mL (≈ 0.418 µM) in the test with S. pyogenes (SPYO 152).
As for `CCC(=S)NC[C@H]1CN(c2ccc(N3CCN(C(=O)COc4ccc(CN5CCN(C)CC5)cc4)CC3)c(F)c2)C(=O)O1` [Compound 22], the MIC was 2 µg/mL (≈ 3.26 µM) with E. Faecium (EFAE 12712); 32 µg/mL (≈ 52.2 µM) in test [1]; 16 µg/mL (≈ 26.1 µM) in test [2]; 2 µg/mL (≈ 3.26 µM) in test [3]; 32 µg/mL (≈ 52.2 µM) against S. aureus (SAUR 31583); 8 µg/mL (≈ 13.1 µM) against S. aureus (SAUR 9213). For the same compound, the MIC in [4] was 2 µg/mL (≈ 3.26 µM); against S. pneumonia (SPNE 9912), 0.125 µg/mL (≈ 0.204 µM); in the test on S. pyogenes (SPYO 152), 0.25 µg/mL (≈ 0.408 µM).
Consider `O=C(COc1ccc(CN2CCOCC2)cc1)N1CCN(c2ccc(N3C[C@H](CNC(=S)C4CC4)OC3=O)cc2F)CC1` [Compound 18], for which the MIC was 1 µg/mL (≈ 1.63 µM) against E. Faecalis (EFAE 9217); 2 µg/mL (≈ 3.27 µM) in the test on E. Faecium (EFAE 12712); 64 µg/mL (≈ 105 µM) in test [1]; 32 µg/mL (≈ 52.3 µM) in test [2]; 2 µg/mL (≈ 3.27 µM) in test [3]; 16 µg/mL (≈ 26.2 µM) in the test on S. aureus (SAUR 31583). Also, the MIC came to 4 µg/mL (≈ 6.54 µM) against S. aureus (SAUR 9213), 1 µg/mL (≈ 1.63 µM) in [4], 0.25 µg/mL (≈ 0.409 µM) against S. pneumonia (SPNE 9912) and 0.25 µg/mL (≈ 0.409 µM) in the test with S. pyogenes (SPYO 152).
As to `CN1CCN(Cc2ccc(OCC(=O)N3CCN(c4ccc(N5C[C@H](CNC(=S)C6CC6)OC5=O)cc4F)CC3)cc2)CC1` [Compound 23], the MIC in the test with E. Faecium (EFAE 12712) was 8 µg/mL (≈ 12.8 µM); in test [1], 64 µg/mL (≈ 102 µM); in [2] it was 64 µg/mL (≈ 102 µM); in [3], 32 µg/mL (≈ 51.2 µM); against S. aureus (SAUR 31583), above 64 µg/mL; in the test with S. aureus (SAUR 9213) it was 16 µg/mL (≈ 25.6 µM). In addition, the MIC in test [4] stood at 8 µg/mL (≈ 12.8 µM); in the test on S. pneumonia (SPNE 9912) it was 0.5 µg/mL (≈ 0.8 µM); in the test on S. pyogenes (SPYO 152), 0.5 µg/mL (≈ 0.8 µM).
With `CC(=O)NC[C@H]1CN(c2ccc(N3CCN(C(=O)COc4ccc(CN5CCOCC5)cc4)CC3)c(F)c2)C(=O)O1` [Compound 19], the MIC in the test with E. Faecalis (EFAE 9217) was 4 µg/mL (≈ 7.02 µM); against E. Faecium (EFAE 12712), 8 µg/mL (≈ 14 µM); in [1], above 64 µg/mL; in test [2], 64 µg/mL (≈ 112 µM); in test [3] it was 64 µg/mL (≈ 112 µM); in the test with S. aureus (SAUR 31583), above 64 µg/mL. Moreover, the MIC amounted to 16 µg/mL (≈ 28.1 µM) with S. aureus (SAUR 9213), 8 µg/mL (≈ 14 µM) in [4], 1 µg/mL (≈ 1.76 µM) with S. pneumonia (SPNE 9912) and 1 µg/mL (≈ 1.76 µM) in the test on S. pyogenes (SPYO 152).
Turning to `CCC(=S)NC[C@H]1CN(c2ccc(N3CCN(C(=O)COc4ccc(CN5CCOCC5)cc4)CC3)c(F)c2)C(=O)O1` [Compound 17], the MIC against E. Faecalis (EFAE 9217) is 1 µg/mL (≈ 1.67 µM); with E. Faecium (EFAE 12712), 2 µg/mL (≈ 3.33 µM); in test [1], 64 µg/mL (≈ 107 µM); in test [2], 32 µg/mL (≈ 53.4 µM); in test [3] it was 4 µg/mL (≈ 6.67 µM); with S. aureus (SAUR 31583) it was 32 µg/mL (≈ 53.4 µM). Further, the MIC was 8 µg/mL (≈ 13.3 µM) in the test with S. aureus (SAUR 9213), 2 µg/mL (≈ 3.33 µM) in test [4], 0.25 µg/mL (≈ 0.417 µM) against S. pneumonia (SPNE 9912) and 0.5 µg/mL (≈ 0.834 µM) in the test with S. pyogenes (SPYO 152).
